Experimental data from patent publication US20150152088A1, “ALKYNYL HETEROAROMATIC COMPOUND AND USE THEREOF” (Nanjing Sanhome Pharmaceutical Co., Ltd., priority 2012, published 2015).

system: K562 chronic myelogenous leukemia cells; assay: MTT assay, in vitro inhibitory activity on cells; assay type: cell-based; details: Homo sapiens, K562, 48 h, typically 48 hours
Excerpt: In this example, MTT assay was used to detect in vitro inhibitory activity of the compounds prepared according to the above examples on the cells. […] AP24534 was purchased from Shanghai Xinkuo Chemical Technology Co., Ltd., China.
Dimethyl sulfoxide (DMSO) is capable of dissolving formazan in cells, and absorbance value can be measured at a wavelength of 490 nm by an enzyme-linked immunometric meter, which reflects the number of living cells. Within a certain range of the number of cells, the amount of MTT crystals formed is proportional to the number of living cells.
1. […] 2. Culturing in a 37° C., 5% CO2 incubator and keeping the cells adhering to the wall of the well. 3. […] 4. Carefully removing the supernatant, gently washing with PBS and discarding the supernatant again. 5. […] 6. Terminating culturing and carefully discarding the medium in each well. 7. Adding 150 μl dimethyl sulfoxide into each well, shaking for 10 minutes at low speed in a shaker, to make crystals fully dissolved. 8. Measuring the absorbance of each well at 490 nm by an enzyme-linked immunometric meter. 9. Calculating IC50 values.

SMILES	IC50 [µM]
Cc1ccc(C(=O)Nc2ccc(CN3CCN(C)CC3)c(C(F)(F)F)c2)cc1C#Cc1ccc2ncncc2c1 [Example 2, 3-((quinazolin-6-yl)ethynyl)-4-methyl-N-[4-((4-methylpiperazin-1-yl)methyl)-3-trifluoromethylphenyl]benzamide]	3.72
CC(=O)Nc1ncc2ccc(C#Cc3cc(C(=O)Nc4ccc(CN5CCN(C)CC5)c(C(F)(F)F)c4)ccc3C)cc2n1 [Example 8, 3-((2-acetylaminoquinazolin-7-yl)ethynyl)-4-methyl-N-[4-((4-methylpiperazin-1-yl)methyl)-3-trifluoromethylphenyl]benzamide]	1.6
CC(=O)Nc1ncc2c(F)cc(C#Cc3cc(C(=O)Nc4ccc(CN5CCN(C)CC5)c(C(F)(F)F)c4)ccc3C)cc2n1 [Example 10, 3-((5-fluoro-2-acetylaminoquinazolin-7-yl)ethynyl)-4-methyl-N-[4-((4-methylpiperazin-1-yl)methyl)-3-trifluoromethylphenyl]benzamide]	6.88
CNc1ncnc2cc(C#Cc3cc(C(=O)Nc4ccc(CN5CCN(CCO)CC5)c(C(F)(F)F)c4)ccc3C)ccc12 [Example 14, 3-((4-methylaminoquinazolin-7-yl)ethynyl)-4-methyl-N-[4-((4-(2-hydroxyethyl)piperazin-1-yl)methyl)-3-trifluoromethylphenyl]benzamide]	5.68
CNc1ncc2ccc(C#Cc3cc(C(=O)Nc4ccc(CN5CCN(CCO)CC5)c(C(F)(F)F)c4)ccc3C)cc2n1 [Example 15, 3-((2-methylaminoquinazolin-7-yl)ethynyl)-4-methyl-N-[4-((4-(2-hydroxyethyl)piperazin-1-yl)methyl)-3-trifluoromethylphenyl]benzamide]	2.9
Cc1ccc(C(=O)Nc2ccc(CN3CCS(=O)(=O)CC3)c(C(F)(F)F)c2)cc1C#Cc1cccc2ncncc12 [Example 17]	8.72
Cc1ccc(C(=O)Nc2ccc(CN3CCN(C)CC3)c(C(F)(F)F)c2)cc1C#Cc1ccc2c(c1)nc(N)n2C [Example 22, 3-((2-amino-1-methyl-1H-benzo[d]imidazol-5-yl)ethynyl)-4-methyl-N-[(4-(4-methylpiperazin-1-yl)methyl)-3-trifluoromethylphenyl]benzamide]	8.1
Cc1cn(-c2cc(NC(=O)c3ccc(F)c(C#Cc4cccc5ncncc45)c3)cc(C(F)(F)F)c2)cn1 [Example 24, 3-((quinazolin-5-yl)ethynyl)-4-fluoro-N-[3-(4-methyl-1H-imidazol-1-yl)-5-trifluoromethylphenyl]benzamide]	11.4
Cc1ccc(C(=O)Nc2ccc(CN3CCN(C)CC3)c(C(F)(F)F)c2)cc1C#Cc1cccc2nc(N)ncc12 [Example 27, 3-((2-aminoquinazolin-5-yl)ethynyl)-4-methyl-N-[(4-(4-methylpiperazin-1-yl)methyl)-3-trifluoromethylphenyl]benzamide]	9.05
CNc1ncc2c(C#Cc3cc(C(=O)Nc4ccc(CN5CCN(C)CC5)c(C(F)(F)F)c4)ccc3C)cccc2n1 [Example 28, 3-((2-methylaminoquinazolin-5-yl)ethynyl)-4-methyl-N-[(4-((4-methyl)piperazin-1-yl)methyl)-3-trifluoromethylphenyl]benzamide]	15.5
CNC(=O)c1cc(Oc2ccc(NC(=O)c3ccc(C)c(C#Cc4cccc5ncncc45)c3)cc2)ccn1 [Example 29, 3-((quinazolin-5-yl)ethynyl)-4-methyl-N-[4-(2-(N-methylcarboxamido)pyridinyl-4-oxy)phenyl]benzamide]	24.1
CNC(=O)c1cc(Oc2ccc(NC(=O)c3ccc(C)c(C#Cc4ccc5c(NC)ncnc5c4)c3)cc2)ccn1 [Example 30]	89.1

same assay, conditions: typically 48 hours

SMILES	IC50 [µM]
Cc1ccc(C(=O)Nc2ccc(CN3CCC(N(C)C)C3)c(C(F)(F)F)c2)cc1C#Cc1cccc2ncncc12 (stereo in doubt) [Example 19, 3-((quinazolin-5-yl)ethynyl)-4-methyl-(S)—N-[4-((3-(dimethylamino)pyrrolidin-1-yl)methyl)-3-trifluoromethylphenyl]benzamide]	8.1
